Test results published in ChEMBL document CHEMBL4393720, “Design, synthesis and biological evaluation of bromophenol-thiazolylhydrazone hybrids inhibiting the interaction of translation initiation factors eIF4E/eIF4G as multifunctional agents for cancer treatment” (Eur J Med Chem, 2019).

Experiments:
A549 = experiment: Antiproliferative activity against human A549 cells assessed as inhibition of cell growth incubated for 48 hrs by MTT assay; assay type: functional, cell-based; conditions: A549, 48 h
Caco-2 = experiment: Antiproliferative activity against human Caco2 cells assessed as inhibition of cell growth incubated for 48 hrs by MTT assay; assay type: functional, cell-based; conditions: Caco-2, 48 h
HepG2 = experiment: Antiproliferative activity against human HepG2 cells assessed as inhibition of cell growth incubated for 48 hrs by MTT assay; assay type: functional, cell-based; conditions: HepG2, 48 h
U-87 MG = experiment: Antiproliferative activity against human U87MG cells assessed as inhibition of cell growth incubated for 48 hrs by MTT assay; assay type: functional, cell-based, U-87MG ATCC
HUVEC = experiment: Antiproliferative activity against human HUVEC cells assessed as inhibition of cell growth incubated for 48 hrs by MTT assay; assay type: cell-based

Row | IC50 (A549) [µM] | IC50 (Caco-2) [µM] | IC50 (HepG2) [µM] | IC50 (U-87 MG) [µM] | Structure (SMILES) | IC50 (HUVEC) [µM]
1 | 56 | 43.4 | 66.2 | 86.3 | COc1cc(/C=N/Nc2nc(-c3cccc(Br)c3)cs2)cc(Br)c1OC | > 100
2 | 40 | 64.2 | 68.3 | 74.1 | COc1cc(/C=N/Nc2nc(-c3ccccc3)cs2)cc(Br)c1OC | > 100
3 | 8.38 | 22.8 | 49.7 | 19.6 | COc1cc(/C=N/Nc2nc(-c3ccc(F)c(F)c3)cs2)c(Br)c(Br)c1OC | 54.7
4 | 94.2 | > 100 | > 100 | > 100 | COc1cc(/C=N/Nc2nc(-c3cc(C(F)(F)F)cc(C(F)(F)F)c3)cs2)cc(Br)c1OC | > 100
5 | 17.6 | > 100 | > 100 | > 100 | COc1cc(/C=N/Nc2nc(-c3ccc(C(F)(F)F)cc3)cs2)c(Br)c(Br)c1OC | > 100
6 | 18.3 | 65.9 | 31.2 | 41 | COc1cc(/C=N/Nc2nc(-c3ccc(C(F)(F)F)cc3)cs2)cc(Br)c1OC | > 100
7 | 94.9 | > 100 | 82.1 | > 100 | COc1ccccc1-c1csc(N/N=C/c2cc(Br)c(OC)c(OC)c2)n1 | > 100
8 | 52.3 | 36.2 | 64.6 | 27.9 | COc1cc(/C=N/Nc2nc(-c3ccc(Br)cc3)cs2)cc(Br)c1OC | > 100
9 | 21.1 | 21.2 | 22.4 | 26.3 | COc1cc(/C=N/Nc2nc(-c3ccc(F)c(F)c3)cs2)cc(Br)c1OC | > 100
10 | 6.23 | 62.8 | 16.7 | 29.7 | Fc1ccc(/C=N/Nc2nc(-c3cc(C(F)(F)F)cc(C(F)(F)F)c3)cs2)cc1F | > 100
11 | 37 | > 100 | > 100 | 27.6 | COc1cc(/C=N/Nc2nc(-c3cccc(Br)c3)cs2)c(Br)c(Br)c1OC | > 100
12 | > 100 | > 100 | > 100 | > 100 | COc1cc(/C=N/Nc2nc(-c3cc(C(F)(F)F)cc(C(F)(F)F)c3)cs2)c(Br)c(Br)c1OC | > 100

The remaining lines, values behind:

Row | Structure (SMILES) | IC50 (A549) [µM] | IC50 (Caco-2) [µM] | IC50 (HepG2) [µM] | IC50 (U-87 MG) [µM] | IC50 (HUVEC) [µM]
13 | COc1cc(/C=N/Nc2nc(-c3ccccc3)cs2)c(Br)c(Br)c1OC | 15.3 | 26.5 | 33.6 | 20.1 | > 100
14 | Fc1ccc(/C=N/Nc2nc(-c3ccccc3)cs2)cc1F | 91.4 | 20.9 | > 100 | > 100 | > 100
15 | O=C(O)/C(Cc1ccccc1[N+](=O)[O-])=N\Nc1nc(-c2ccc(Cl)c(Cl)c2)cs1 | 58.6 | 44.7 | 36.9 | 75 | 67.5
16 | Fc1ccc(/C=N/Nc2nc(-c3cccc(Br)c3)cs2)cc1F | 16.2 | 17.5 | 16.7 | 39.9 | > 100
17 | COc1ccccc1-c1csc(N/N=C/c2cc(OC)c(OC)c(Br)c2Br)n1 | 85.1 | > 100 | > 100 | > 100 | > 100
18 | Fc1ccc(/C=N/Nc2nc(-c3ccc(F)c(F)c3)cs2)cc1F | 8.49 | 14.2 | 26.6 | 43.9 | 59.7
19 | COc1ccccc1-c1csc(N/N=C/c2ccc(F)c(F)c2)n1 | 61.3 | 25.2 | > 100 | 40.6 | > 100
20 | Fc1ccc(/C=N/Nc2nc(-c3ccc(Br)cc3)cs2)cc1F | > 100 | 43.9 | > 100 | > 100 | > 100
21 | COc1cc(/C=N/Nc2nc(-c3ccc(Br)cc3)cs2)c(Br)c(Br)c1OC | 46.1 | > 100 | > 100 | > 100 | > 100
